Tests used:
[1] = molecular target: 5-hydroxytryptamine receptor 2B (Homo sapiens, UniProt P41595); format: functional, cell-based
[2] = molecular target: Acetylcholinesterase (Homo sapiens, UniProt P22303); format: functional
[3] = molecular target: Prothrombin (Homo sapiens, UniProt P00734); format: functional
[4] = molecular target: Voltage-gated inwardly rectifying potassium channel KCNH2 (Homo sapiens, UniProt Q12809); format: functional
[5] = molecular target: Sodium-dependent dopamine transporter (Homo sapiens, UniProt Q01959)
[6] = molecular target: T1, Thromboxane A2 receptor (Homo sapiens, UniProt P21731); format: functional, cell-based
T1 sequence (P21731 whole entry): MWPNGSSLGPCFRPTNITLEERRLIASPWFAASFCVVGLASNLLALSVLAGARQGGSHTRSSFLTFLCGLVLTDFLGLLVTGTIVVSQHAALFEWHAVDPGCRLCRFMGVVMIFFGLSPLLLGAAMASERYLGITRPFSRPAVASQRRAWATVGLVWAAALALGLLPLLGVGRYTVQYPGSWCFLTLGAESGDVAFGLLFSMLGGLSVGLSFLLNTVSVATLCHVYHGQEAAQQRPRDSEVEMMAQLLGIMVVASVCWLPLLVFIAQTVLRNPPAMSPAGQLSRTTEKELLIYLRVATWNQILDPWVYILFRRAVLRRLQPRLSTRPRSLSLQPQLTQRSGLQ

[7] = molecular target: T2, Muscarinic acetylcholine receptor M2 (Homo sapiens, UniProt P08172)
T2 sequence (P08172 whole entry): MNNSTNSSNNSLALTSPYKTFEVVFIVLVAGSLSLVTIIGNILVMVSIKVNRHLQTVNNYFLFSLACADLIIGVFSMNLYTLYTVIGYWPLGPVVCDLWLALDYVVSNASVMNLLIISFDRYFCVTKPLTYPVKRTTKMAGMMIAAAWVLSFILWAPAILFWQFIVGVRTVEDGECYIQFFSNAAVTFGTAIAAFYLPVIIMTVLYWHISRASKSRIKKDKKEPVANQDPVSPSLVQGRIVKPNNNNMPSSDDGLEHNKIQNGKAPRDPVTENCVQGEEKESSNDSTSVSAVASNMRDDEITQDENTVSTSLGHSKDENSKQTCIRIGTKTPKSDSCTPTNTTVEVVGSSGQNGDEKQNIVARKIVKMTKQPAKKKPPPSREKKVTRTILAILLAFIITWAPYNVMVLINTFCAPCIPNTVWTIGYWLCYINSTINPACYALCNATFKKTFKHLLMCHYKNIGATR

[8] = molecular target: 3',5'-cyclic-AMP phosphodiesterase 4A (Homo sapiens, UniProt P27815); format: functional
[9] = molecular target: Histamine H3 receptor (Homo sapiens, UniProt Q9Y5N1)
[10] = molecular target: cGMP-inhibited 3',5'-cyclic phosphodiesterase 3A (Homo sapiens, UniProt Q14432); format: functional
[11] = molecular target: T3, 5-hydroxytryptamine receptor 1A (Homo sapiens, UniProt P08908)
T3 sequence (P08908 whole entry): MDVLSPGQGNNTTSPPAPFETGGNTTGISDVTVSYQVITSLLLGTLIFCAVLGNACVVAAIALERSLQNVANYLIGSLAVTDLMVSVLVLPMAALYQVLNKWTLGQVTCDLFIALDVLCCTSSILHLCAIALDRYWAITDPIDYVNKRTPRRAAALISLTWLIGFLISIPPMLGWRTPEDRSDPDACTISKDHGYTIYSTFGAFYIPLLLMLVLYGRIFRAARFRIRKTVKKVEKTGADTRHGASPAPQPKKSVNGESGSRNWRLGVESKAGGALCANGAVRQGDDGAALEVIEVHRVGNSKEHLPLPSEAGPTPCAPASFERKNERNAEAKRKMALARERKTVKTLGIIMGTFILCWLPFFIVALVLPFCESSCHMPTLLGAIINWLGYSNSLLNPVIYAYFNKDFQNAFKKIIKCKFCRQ

[12] = molecular target: T4, Amine oxidase [flavin-containing] A (Homo sapiens, UniProt P21397); format: functional
T4 sequence (P21397 whole entry): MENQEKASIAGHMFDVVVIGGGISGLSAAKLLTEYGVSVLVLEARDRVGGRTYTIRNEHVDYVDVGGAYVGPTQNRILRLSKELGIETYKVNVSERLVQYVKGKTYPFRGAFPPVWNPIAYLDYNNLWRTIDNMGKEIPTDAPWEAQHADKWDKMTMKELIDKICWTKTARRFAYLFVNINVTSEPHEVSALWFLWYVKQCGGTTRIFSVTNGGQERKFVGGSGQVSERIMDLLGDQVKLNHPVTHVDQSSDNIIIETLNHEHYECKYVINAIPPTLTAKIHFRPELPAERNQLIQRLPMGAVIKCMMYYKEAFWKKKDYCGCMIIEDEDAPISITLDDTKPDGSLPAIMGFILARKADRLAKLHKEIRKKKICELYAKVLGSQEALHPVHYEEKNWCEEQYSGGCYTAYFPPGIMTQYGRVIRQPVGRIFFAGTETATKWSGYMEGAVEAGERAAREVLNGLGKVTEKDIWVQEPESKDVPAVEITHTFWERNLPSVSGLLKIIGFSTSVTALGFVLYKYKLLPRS

[13] = molecular target: T5, Alpha-2A adrenergic receptor (Homo sapiens, UniProt P08913)
T5 sequence (P08913 whole entry): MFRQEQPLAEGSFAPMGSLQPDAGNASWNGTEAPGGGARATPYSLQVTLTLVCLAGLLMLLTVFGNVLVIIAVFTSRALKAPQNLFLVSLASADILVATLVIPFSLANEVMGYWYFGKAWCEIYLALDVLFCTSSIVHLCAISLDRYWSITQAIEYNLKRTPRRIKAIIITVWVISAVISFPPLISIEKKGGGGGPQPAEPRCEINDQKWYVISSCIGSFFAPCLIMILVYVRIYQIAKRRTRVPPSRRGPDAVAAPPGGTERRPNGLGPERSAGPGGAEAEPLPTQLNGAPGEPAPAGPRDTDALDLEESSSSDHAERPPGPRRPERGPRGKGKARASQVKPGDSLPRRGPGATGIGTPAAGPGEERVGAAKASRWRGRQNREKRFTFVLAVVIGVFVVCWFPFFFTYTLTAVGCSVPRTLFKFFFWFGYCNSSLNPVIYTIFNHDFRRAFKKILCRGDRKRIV

[14] = molecular target: T1, Thromboxane A2 receptor; format: functional, cell-based; remark: listed apart in the source
Also: assay procedure not described here.

Sequence of 5-hydroxytryptamine receptor 2B (P41595 whole entry): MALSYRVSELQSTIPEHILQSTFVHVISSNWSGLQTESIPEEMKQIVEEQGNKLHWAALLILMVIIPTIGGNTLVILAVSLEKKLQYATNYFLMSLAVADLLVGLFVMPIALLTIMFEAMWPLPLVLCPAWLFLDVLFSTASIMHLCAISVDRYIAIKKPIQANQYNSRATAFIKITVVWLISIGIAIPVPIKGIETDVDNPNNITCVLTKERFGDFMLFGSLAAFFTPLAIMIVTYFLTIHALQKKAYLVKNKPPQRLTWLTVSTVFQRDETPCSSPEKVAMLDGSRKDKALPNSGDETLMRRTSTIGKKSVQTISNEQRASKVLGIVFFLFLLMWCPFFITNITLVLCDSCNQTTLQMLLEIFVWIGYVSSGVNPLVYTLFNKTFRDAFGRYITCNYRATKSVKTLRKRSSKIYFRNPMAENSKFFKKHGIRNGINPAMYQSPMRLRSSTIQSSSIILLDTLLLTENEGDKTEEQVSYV
Sequence of cGMP-inhibited 3',5'-cyclic phosphodiesterase 3A (Q14432 whole entry): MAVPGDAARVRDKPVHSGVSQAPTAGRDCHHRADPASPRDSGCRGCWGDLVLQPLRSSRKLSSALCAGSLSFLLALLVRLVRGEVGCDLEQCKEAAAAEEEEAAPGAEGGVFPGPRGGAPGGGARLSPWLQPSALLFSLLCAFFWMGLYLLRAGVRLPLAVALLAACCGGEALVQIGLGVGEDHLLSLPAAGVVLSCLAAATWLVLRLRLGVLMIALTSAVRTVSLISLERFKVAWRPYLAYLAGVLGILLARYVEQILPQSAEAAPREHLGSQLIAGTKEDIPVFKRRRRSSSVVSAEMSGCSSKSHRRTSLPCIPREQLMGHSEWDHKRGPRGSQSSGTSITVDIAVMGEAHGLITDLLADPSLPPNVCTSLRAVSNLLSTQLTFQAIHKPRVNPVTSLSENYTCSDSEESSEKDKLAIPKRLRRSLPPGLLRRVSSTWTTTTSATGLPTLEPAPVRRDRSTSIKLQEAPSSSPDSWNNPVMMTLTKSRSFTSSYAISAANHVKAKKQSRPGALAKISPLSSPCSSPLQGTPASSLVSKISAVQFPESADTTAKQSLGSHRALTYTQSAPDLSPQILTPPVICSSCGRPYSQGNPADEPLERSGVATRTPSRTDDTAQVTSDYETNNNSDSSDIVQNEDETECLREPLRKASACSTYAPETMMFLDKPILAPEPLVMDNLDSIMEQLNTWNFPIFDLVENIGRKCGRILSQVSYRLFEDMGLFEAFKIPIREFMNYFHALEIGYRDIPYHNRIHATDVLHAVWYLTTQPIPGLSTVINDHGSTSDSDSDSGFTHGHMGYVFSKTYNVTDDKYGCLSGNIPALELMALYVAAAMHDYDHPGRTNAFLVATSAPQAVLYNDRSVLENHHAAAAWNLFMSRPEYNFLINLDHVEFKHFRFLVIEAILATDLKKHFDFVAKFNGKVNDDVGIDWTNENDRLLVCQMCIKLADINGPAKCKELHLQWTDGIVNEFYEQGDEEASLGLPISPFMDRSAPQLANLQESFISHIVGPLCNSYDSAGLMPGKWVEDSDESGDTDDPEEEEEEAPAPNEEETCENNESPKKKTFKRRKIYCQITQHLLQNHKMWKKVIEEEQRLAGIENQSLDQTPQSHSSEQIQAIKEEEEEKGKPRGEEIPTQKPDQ
Sequence of Voltage-gated inwardly rectifying potassium channel KCNH2 (Q12809 whole entry): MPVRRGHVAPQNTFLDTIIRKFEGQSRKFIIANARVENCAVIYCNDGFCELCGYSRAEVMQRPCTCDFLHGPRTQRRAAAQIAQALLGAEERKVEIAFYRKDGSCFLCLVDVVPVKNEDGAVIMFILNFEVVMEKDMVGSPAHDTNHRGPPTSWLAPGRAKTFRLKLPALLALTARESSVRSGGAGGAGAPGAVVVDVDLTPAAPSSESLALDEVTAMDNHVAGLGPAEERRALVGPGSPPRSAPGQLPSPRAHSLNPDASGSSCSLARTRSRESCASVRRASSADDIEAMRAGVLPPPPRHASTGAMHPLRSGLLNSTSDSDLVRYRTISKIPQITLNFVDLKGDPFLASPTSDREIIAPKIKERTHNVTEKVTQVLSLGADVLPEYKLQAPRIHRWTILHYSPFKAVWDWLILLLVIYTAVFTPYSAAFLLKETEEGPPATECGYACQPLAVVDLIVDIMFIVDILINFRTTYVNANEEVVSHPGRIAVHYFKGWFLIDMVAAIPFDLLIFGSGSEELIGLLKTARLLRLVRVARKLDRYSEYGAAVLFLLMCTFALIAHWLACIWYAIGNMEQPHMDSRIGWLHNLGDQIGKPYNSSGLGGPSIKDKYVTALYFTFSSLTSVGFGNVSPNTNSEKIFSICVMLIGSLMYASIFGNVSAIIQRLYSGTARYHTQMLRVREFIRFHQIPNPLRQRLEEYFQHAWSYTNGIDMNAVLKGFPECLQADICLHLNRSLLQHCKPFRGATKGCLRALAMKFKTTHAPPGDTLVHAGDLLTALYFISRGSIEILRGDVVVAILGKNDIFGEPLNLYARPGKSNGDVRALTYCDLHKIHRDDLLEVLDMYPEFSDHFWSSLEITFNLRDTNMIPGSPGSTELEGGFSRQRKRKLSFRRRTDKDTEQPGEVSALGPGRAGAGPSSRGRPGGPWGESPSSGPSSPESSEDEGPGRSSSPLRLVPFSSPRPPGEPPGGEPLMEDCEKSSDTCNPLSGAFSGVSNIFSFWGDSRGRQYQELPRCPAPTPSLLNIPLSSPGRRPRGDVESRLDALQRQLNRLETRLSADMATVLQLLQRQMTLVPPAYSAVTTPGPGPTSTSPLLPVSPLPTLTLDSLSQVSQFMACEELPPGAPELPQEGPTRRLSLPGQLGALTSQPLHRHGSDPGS
Sequence of Sodium-dependent dopamine transporter (Q01959 whole entry): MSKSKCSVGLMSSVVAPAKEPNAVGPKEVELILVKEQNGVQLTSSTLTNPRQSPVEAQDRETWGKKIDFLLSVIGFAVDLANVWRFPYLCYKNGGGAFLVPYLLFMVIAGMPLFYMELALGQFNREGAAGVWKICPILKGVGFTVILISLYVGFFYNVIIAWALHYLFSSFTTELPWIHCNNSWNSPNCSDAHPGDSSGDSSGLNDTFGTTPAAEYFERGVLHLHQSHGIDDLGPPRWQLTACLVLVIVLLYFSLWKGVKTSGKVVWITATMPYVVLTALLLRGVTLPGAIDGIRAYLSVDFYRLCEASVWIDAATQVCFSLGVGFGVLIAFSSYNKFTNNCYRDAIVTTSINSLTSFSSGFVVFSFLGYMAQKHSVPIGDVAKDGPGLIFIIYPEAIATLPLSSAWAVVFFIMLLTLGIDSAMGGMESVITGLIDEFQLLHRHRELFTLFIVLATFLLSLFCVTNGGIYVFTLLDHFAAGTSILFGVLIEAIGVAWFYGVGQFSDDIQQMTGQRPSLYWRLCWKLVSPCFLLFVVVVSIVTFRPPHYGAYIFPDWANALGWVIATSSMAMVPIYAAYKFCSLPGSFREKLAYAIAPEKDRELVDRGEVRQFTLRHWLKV
Sequence of 3',5'-cyclic-AMP phosphodiesterase 4A (P27815 whole entry): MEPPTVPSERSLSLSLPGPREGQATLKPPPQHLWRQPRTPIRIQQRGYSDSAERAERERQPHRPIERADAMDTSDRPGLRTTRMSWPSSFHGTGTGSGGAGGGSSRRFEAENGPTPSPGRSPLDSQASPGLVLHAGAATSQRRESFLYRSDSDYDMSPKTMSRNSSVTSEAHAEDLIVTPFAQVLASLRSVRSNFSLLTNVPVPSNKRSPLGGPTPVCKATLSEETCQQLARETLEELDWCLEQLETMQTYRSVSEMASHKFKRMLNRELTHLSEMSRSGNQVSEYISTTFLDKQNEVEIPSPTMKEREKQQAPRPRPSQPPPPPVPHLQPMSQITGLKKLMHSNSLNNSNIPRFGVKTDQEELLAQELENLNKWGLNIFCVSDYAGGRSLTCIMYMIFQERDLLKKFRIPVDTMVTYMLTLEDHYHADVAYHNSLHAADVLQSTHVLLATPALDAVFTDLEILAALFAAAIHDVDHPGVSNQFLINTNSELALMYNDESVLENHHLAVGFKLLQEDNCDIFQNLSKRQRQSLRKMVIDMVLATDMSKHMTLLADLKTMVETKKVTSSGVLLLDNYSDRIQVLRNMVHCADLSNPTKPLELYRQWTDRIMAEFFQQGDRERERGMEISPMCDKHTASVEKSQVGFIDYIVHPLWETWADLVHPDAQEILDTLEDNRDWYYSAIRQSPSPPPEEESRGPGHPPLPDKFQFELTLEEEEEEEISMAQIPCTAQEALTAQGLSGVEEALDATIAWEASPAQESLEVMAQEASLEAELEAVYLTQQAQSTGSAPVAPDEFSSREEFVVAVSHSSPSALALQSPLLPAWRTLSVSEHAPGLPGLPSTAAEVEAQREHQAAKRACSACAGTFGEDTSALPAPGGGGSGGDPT
Sequence of Acetylcholinesterase (P22303 whole entry): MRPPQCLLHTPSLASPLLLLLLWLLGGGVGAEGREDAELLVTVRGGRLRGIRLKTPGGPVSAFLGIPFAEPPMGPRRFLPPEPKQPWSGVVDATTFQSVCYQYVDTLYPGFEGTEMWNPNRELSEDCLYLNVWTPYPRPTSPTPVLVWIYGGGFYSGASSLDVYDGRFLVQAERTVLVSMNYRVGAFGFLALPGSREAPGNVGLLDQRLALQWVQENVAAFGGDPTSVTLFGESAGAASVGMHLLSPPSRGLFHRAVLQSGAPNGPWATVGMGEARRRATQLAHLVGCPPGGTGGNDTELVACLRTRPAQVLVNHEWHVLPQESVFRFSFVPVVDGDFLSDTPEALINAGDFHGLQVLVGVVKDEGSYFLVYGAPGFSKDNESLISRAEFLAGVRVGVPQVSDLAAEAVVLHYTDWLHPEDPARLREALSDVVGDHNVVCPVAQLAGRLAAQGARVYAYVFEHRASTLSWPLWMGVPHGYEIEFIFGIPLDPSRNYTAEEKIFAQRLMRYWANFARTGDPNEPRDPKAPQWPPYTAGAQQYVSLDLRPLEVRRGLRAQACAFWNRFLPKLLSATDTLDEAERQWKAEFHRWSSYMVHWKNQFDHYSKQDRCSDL

Row | SMILES | AC50 [1] | AC50 [2] | AC50 [3] | AC50 [4] | AC50 [5] | AC50 [6] | AC50 [7] | AC50 [8] | AC50 [9] | AC50 [10] | AC50 [11] | AC50 [12] | AC50 [13] | AC50 [14]
1 | Cc1oc(=O)oc1COC(=O)[C@@H]1N2C(=O)[C@@H](NC(=O)[C@H](N)c3ccccc3)[C@H]2SC1(C)C [LENAMPICILLIN] | > 30 µM | > 30 µM | > 30 µM | > 30 µM | > 30 µM | > 30 µM | > 30 µM | > 30 µM | > 30 µM | > 30 µM | > 30 µM | > 30 µM | > 30 µM | 24.9 µM
2 | c1ccc2c(SC3=NCCN3)c[nH]c2c1 [TINAZOLINE] | > 30 µM | > 30 µM | > 30 µM | > 30 µM | > 30 µM | > 30 µM | > 30 µM | > 30 µM | > 30 µM | > 30 µM | 0.19 µM | 15.9 µM | 0.0098 µM | > 30 µM
3 | CC(OCCN1CCCCCC1)(c1ccccc1)c1ccc(Cl)cc1 (stereo not drawn) [SETASTINE] | > 30 µM | 9.61 µM | > 30 µM | 0.14 µM | 2.98 µM | > 30 µM | 0.393 µM | > 30 µM | 23.2 µM | > 30 µM | 9.59 µM | > 30 µM | 7.86 µM | 8.8 µM
4 | COC(=O)[C@H]1[C@H]2C[C@@H]3c4[nH]c5cc(OC)ccc5c4CCN3C[C@H]2C[C@@H](OC(=O)c2cc(OC)c(OC)c(OC)c2)[C@@H]1OC [RESERPINE] | > 30 µM | > 30 µM | > 30 µM | 1.46 µM | 29.3 µM | > 30 µM | > 30 µM | > 3 µM | > 30 µM | > 3 µM | > 30 µM | > 30 µM | > 30 µM | > 30 µM
5 | C[C@@H]1C[C@H]2[C@@H]3C[C@H](F)C4=CC(=O)C=C[C@]4(C)[C@@]3(F)[C@@H](O)C[C@]2(C)[C@@]1(OC(=O)c1ccco1)C(=O)SCF [FLUTICASONE FUROATE] | > 30 µM | > 30 µM | > 30 µM | > 30 µM | > 30 µM | > 30 µM | > 30 µM | > 30 µM | > 30 µM | > 30 µM | > 30 µM | > 30 µM | > 30 µM | > 30 µM
6 | Cc1cn([C@H]2O[C@@H](CO)[C@H](O)[C@H]2F)c(=O)[nH]c1=O [CLEVUDINE] | > 30 µM | > 30 µM | > 30 µM | – | > 30 µM | > 30 µM | > 30 µM | > 30 µM | > 30 µM | > 30 µM | > 30 µM | > 30 µM | > 30 µM | > 30 µM

From ChEMBL document CHEMBL5291721, “A preclinical secondary pharmacology resource illuminates target-adverse drug reaction associations of marketed drugs” (Nat Commun, 2023)
